In data set [1] the test system is A549. The experiment in a line: MTT cell viability assay, A549. Format: cell-based, human. The settings on record: 48 h. On the procedure:
(§1) Cells were seeded at a density of 1 × 10^4 cells per well in 96-well plates. The following day, these cells were washed with PBS and exposed to different concentrations of testing compounds in culture medium for 48 h. MTT solution (10 μl at 5 mg/ml) was added to each well. After 4 h of incubation at 37°C, the medium was removed, and the insoluble precipitate was dissolved in 100 μl DMSO (Sigma, St. Louis, MO, USA). The absorbance of the dissolved solution at 490 nm was measured using a microplate reader (TECAN A-5082; Megllan, Austria). Cell viability percentages were calculated by dividing the mean optical density (OD) of compound-containing wells by that of the control wells. Each experiment was replicated three times. The IC50 of testing drugs was calculated with Statistical Product and Service Solutions software (SPSS, version 16.0).

Data set [2] deals with peripheral blood cell count. The experiment in a line: Peripheral blood cell count of treated xenograft mice. Format: in vivo. The settings on record: diplatin 120 mg/kg; DDP 6 mg/kg; CBP 60 mg/kg.
In data set [3] the test system is H292 cells. Briefly: Cell cycle by PI flow cytometry, H292. Format: cell-based, human. The settings on record: diplatin 50 μM, DDP 5 μM, CBP 100 μM. The procedure: (§2) Then, the cells were trypsinized, washed with PBS, and fixed in 1.5 ml 95% ethanol and left at 4°C overnight. They were then incubated with RNase and stained with propidium iodide (PI) (Multi Sciences Biotech Co., Ltd). PI absorbance was determined using a Cytomics FC500 Flow Cytometer (Beckman Coulter, USA).

Data set [4] relates to A549, NCI-H292, NCI-H460, and LTEP-A-2 xenograft models. The experiment in a line: ED50 (50% reduction of xenograft tumor volume) in nude mice. Format: in vivo. Conditions: dose reducing xenograft tumor volume by 50%; average over A549, NCI-H292, NCI-H460, and LTEP-A-2 xenograft models. The procedure: (§3) After injection, the animals’ condition was monitored every day for over 1 week by an observer who was blinded to the dose and drug allocation.
(§4) Estimates for ED50 and LD50 were calculated through nonlinear regression, data were fitted to a sigmoidal dose-response relationship in Prism (version 4.0a; GraphPad Software, Inc., San Diego, CA). The data were fitted to the equation:
(§5) Y=Ymin+Ymax−Ymin/1+10^(LogED50−X)∗HillSlope
(§6) where X is the logarithm of concentration, and Y is the response.

Data set [5] concerns LTEP-A-2. The experiment in a line: MTT cell viability assay, LTEP-A-2. Format: cell-based, human. The settings on record: 48 h. On the procedure: as §1
For data set [6], the system named is H292. The experiment in a line: MTT cell viability assay, H292. The settings on record: 48 h. Format: cell-based, human. On the procedure: as §1
For data set [7], the system named is H460 cells. Briefly: Cell cycle by PI flow cytometry, H460. Format: cell-based, human. Conditions: diplatin 50 µM, DDP 5 µM, CBP 100 µM. On the procedure:
as §2

Data set [8] in a line: Body weight and tolerability of A549 and H292 xenograft mice. The format is in vivo. The settings on record: diplatin 120 mg/kg; CBP 60 mg/kg; every 3 days i.v.
Procedure: Cells in logarithmic growth were washed with PBS and suspended in serum-free medium. Portions of the suspension (5 × 10^6 cells in 0.1 ml/mouse) were mixed at a 3:1 ratio with Matrigel basement membrane matrix and injected subcutaneously into the mice. Following 2 weeks of growth, tumor tissues were cut into multiple 2 × 2 × 2 mm^3 pieces and implanted using a range trocar subcutaneously (s.c. injection) into the left forepaw armpit of each mouse ([Jiang et al., 2017]). Treatment with pharmacology was started when the tumors reached an average volume of 100–200 mm^3. The mice were randomly divided into six groups (n = 14/group).
Body weight and tumor size were assessed every 3 days. Tumor size was measured using a caliper, the volumes were calculated according to the following standard formula: V = (L × W^2)/2 (V = tumor volume, L = largest diameter of tumor, W = smallest diameter of tumor). On day 25, all mice were sacrificed by cervical dislocation, and the tumors were removed and weighed.
The test system of data set [9] is lung tumor cell lines. Briefly: MTT cell viability assay, panel of lung tumor cell lines. Format: cell-based, human. The settings on record: 48 h, read-out: IC50 range over the lung tumor cell lines. The procedure: as §1
In data set [10] the test system is A549 tumors. The experiment in a line: TUNEL assay of A549 xenograft tumor sections. Format: in vivo, mice. The settings on record: diplatin 120 mg/kg, DDP 6 mg/kg, CBP 60 mg/kg. On the procedure:
(§7) Tumor tissues were fixed in 10% formalin for 4 h and then embedded in paraffin. Five-micrometer-thick sections were sliced and stained for apoptotic cells with TUNEL assay kit in accordance with manufacturer instructions (KGI Biotechnology Company, Nanjing, China). A positive result was marked by brown staining in the cell nucleus. Cell images were acquired through a microscope (Olympus BX 51, Japan). The apoptotic index (AI) was determined as a percentage of apoptotic cells from at least 1,000 cells in each mouse.

The nature of data set [11]: Splenic index (spleen weight-to-body weight ratio). Format: in vivo, mice. Conditions: diplatin 30, 60, 120 mg/kg; DDP 6 mg/kg; CBP 60 mg/kg.
In data set [12] the test system is Calu-3. The experiment in a line: MTT cell viability assay, Calu-3. The format is cell-based, human. Conditions: 48 h. On the procedure: as §1
The subject of data set [13] is H1650. Briefly: MTT cell viability assay, H1650. Format: cell-based, human. Conditions: 48 h. The procedure: as §1
In data set [14] the test system is H460. The experiment in a line: MTT cell viability assay, H460. Format: cell-based, human. The settings on record: 48 h. On the procedure:
as §1

The subject of data set [15] is LTEP-A-2 cells. Briefly: Cell cycle by PI flow cytometry, LTEP-A-2. The settings on record: diplatin 50 µM, DDP 5 µM, CBP 100 µM. Format: cell-based, human. On the procedure: as §2
The test system of data set [16] is HCC827. Briefly: MTT cell viability assay, HCC827. Format: cell-based, human. Conditions: 48 h. The procedure:
as §1

The test system of data set [17] is JNK, Erk1/2 and p38 phosphorylation in A549 and H292 cells. Briefly: Western blot of MAPK phosphorylation (JNK, Erk1/2, p38). The settings on record: for Erk1/2 and p38 phosphorylation: diplatin 10, 25, 50 μM, DDP 5 μM, CBP 100 μM. Format: cell-based, human. The procedure:
(§8) Cells were treated with diplatin, DDP, and CBP before being lysed. After centrifugation at 12,000 rpm for 10 min, an equal amount of protein from each group was subjected to electrophoresis on 10% SDS-PAGE gels. The proteins in the gel were then electroblotted onto polyvinylidene fluoride (PVDF) membranes (Millipore, Massachusetts, USA). After incubation in the blocking buffer (1× TBS, 0.1% Tween-20, and 5% w/v dry nonfat milk) for 1 h at room temperature, the membranes were incubated with the primary antibody at 4°C overnight. Next, membranes were rinsed with TBST, and then secondary antibodies were applied (LI-COR, USA) at room temperature for 1 h. Immunoreactive bands were visualized by a two-color infrared imaging system (Odyssey, LI-COR, USA).

Data set [18] concerns BEAS-2B normal human lung epithelial cell line. The experiment in a line: MTT cell viability assay, BEAS-2B. Format: cell-based. Conditions: BEAS-2B normal lung epithelial cells; MTT; 48 h. On the procedure:
as §1

For data set [19], the system named is A549/DDP. Briefly: MTT cell viability assay, A549/DDP. The settings on record: A549/DDP (DDP-resistant), 48 h. Format: cell-based, human. The procedure:
as §1

Data set [20] has as its system H1299. The experiment in a line: MTT cell viability assay, H1299. Format: cell-based, human. Conditions: 48 h. The procedure:
as §1

Data set [21] relates to H292 tumors. The experiment in a line: TUNEL assay of H292 xenograft tumor sections. Format: in vivo, mice. The settings on record: diplatin 120 mg/kg, DDP 6 mg/kg, CBP 60 mg/kg. The procedure: as §7
The subject of data set [22] is bone marrow karyocyte count. The experiment in a line: Bone marrow karyocyte count. Format: in vivo, mice.
For data set [23], the system named is normal ICR mice. Briefly: LD50 in normal ICR mice. Format: in vivo. The settings on record: tail vein injection. The procedure:
as §3, §4, §5, §6

Data set [24] concerns A549 cells. Briefly: Cell cycle by PI flow cytometry, A549. Format: cell-based, human. The settings on record: diplatin 50 μM, DDP 5 μM, CBP 100 μM. On the procedure: as §2
On the set-up of data set [25]: method as in Moraleja et al., 2018. The settings on record: rats; ref Moraleja et al., 2018; cited from earlier work.
Data set [26] relates to p53, Fas, and Bax expressions in A549 and H292 cells. The experiment in a line: Western blot of p53, Fas and Bax. Format: cell-based, human. The settings on record: 10 μM SP600125 pretreatment 0.5 h, 25 μM diplatin 48 h. On the procedure:
as §8

Data on three molecules can be found in paper PMC6749073 (Frontiers in Pharmacology, 2019).

SMILES strings stand for the structures.

For `N.N.O=C([O-])C1(C(=O)[O-])CCC1.[Pt+2]` [CBP, carboplatin], the IC50 was 221 µM in data set [1]; 57 µM in data set [5]; 257 µM in data set [6]; 57 to 790 µM in data set [9]; 790 µM in data set [12]; 209 µM in data set [13]. The concentration for half-maximal inhibition (IC50) in data set [14] was 229 µM; in [16], 328 µM; in data set [18], 461 µM; in [19], 300 µM; in data set [20] it was 274 µM. The “decrease of peripheral blood cell count” value in data set [2] is given as 67.9%. Besides, the “effect on cell cycle distribution” value in data set [3], in [7], in [15] and in data set [24] was “induced cell cycle arrest in S phase” each time. Further, the “Mice ED50” value in [4] was 59.5 mg/kg. In data set [8], the “reduction of body weight by day 25” value is 18.71%. In addition, the “apoptosis (apoptotic index, TUNEL)” value stood at 18.5% in data set [10] and 24.9% in data set [21]. In addition, the “splenic index relative to control” value in [11] was “no difference relative to control”. Also, the “Erk1/2 and p38 phosphorylation” value in [17] was “failed to induce Erk1/2 and p38 phosphorylation”. Moreover, in [22] (DDP 6 mg/kg, CBP 60 mg/kg), the “bone marrow karyocyte count compared with the 120 mg/kg diplatin-treated group” value is “decreased bone marrow karyocyte count more”. The “Mice LD50” value in data set [23] is given as 150 mg/kg.
In the case of `N.N.[Cl][Pt][Cl]` [DDP, cisplatin], the 50% inhibitory concentration (IC50) in data set [1] turned out to be 46.7 µM; in data set [5], 6.2 µM; in data set [6], 6 µM; in [12] it was 33.5 µM; in [13], 11.6 µM; in [16], 14.7 µM. In addition, the half-maximal inhibitory concentration (IC50) was 19.3 µM in data set [18], 151 µM in [19] and 18.7 µM in data set [20]. For the same molecule, the “effect on cell cycle distribution” value in [3], in [7], in data set [15] and in data set [24] was “induced cell cycle arrest in S phase” each time. In addition, the “Mice ED50” value in data set [4] is given as 6.0 mg/kg. In addition, the “Pt accumulation in the kidney compared with the CBP group” value in data set [25] is reported as “approximately five-fold higher”. In addition, in data set [17], the “Erk1/2 and p38 phosphorylation” value is “failed to induce Erk1/2 and p38 phosphorylation”. Moreover, the JNK phosphorylation levels result in data set [17] (diplatin 10–50 μM, DDP 10 μM, 0.5 h) was “elevated”. The “bone marrow karyocyte count compared with the 120 mg/kg diplatin-treated group” value in data set [22] (mouse, in vivo) was “decreased bone marrow karyocyte count more”.
Regarding `Oc1c2ccccc2c2c3c(cccc13)N=N2` [SP600125], the “effect on diplatin-induced p53, Fas, and Bax expression” value in data set [26] is “suppressed”.
